Reference: US12458614B2, “Therapeutic agents for improved mobility and cognitive function and for treating neurodegenerative diseases and lysosomal storage disorders” (priority 2017, dated 2025)
“Also recorded” adds a separate entry of the source.

Legend:
[1] = system: patient with frontotemporal dementia with parkinsonism; assay: Case study, frontotemporal dementia with parkinsonism; type: in vivo, human; conditions: treatment with L-Dopa and Ropinirol
Source text: After approximately one month of acetyl-leucine treatment, medication was stopped and the patient was re-examined 13 days later.

[2] = system: patients with downbeat nystagmus; assay: Case studies, downbeat nystagmus; type: in vivo, human; conditions: downbeat nystagmus Patients 1 (10 mg twice daily, four weeks) and 2
[3] = system: patient with Lewy Body dementia; assay: Case study, Lewy Body dementia; type: in vivo, human; conditions: Levodopa 100 mg 4× daily and Quetiapin 25 mg at night
Procedure: The patient started taking acetyl-leucine (3 g/day for one week; 5 g/day thereafter) and was evaluated after four weeks. […] Medication was reduced to 3 g/day, and the patient was instructed to stop medication about two weeks later.

[4] = system: patient with progressive gait disorder; assay: Case study Example 26, quantitative gait analysis; type: in vivo, human; conditions: treatment with L-Dopa
[5] = system: patients with progressive supranuclear palsy; assay: Case studies, progressive supranuclear palsy; type: in vivo, human; conditions: individual PSP patients 1 to 4
Procedure: After 27 days of acetyl-leucine treatment, medication was stopped and the patient was re-examined 60 days later. […] Gait analysis was performed before treatment commenced. After 17 days of treatment, medication was stopped and the patient was re-examined 4 days later. […] Gait analysis was performed before treatment commenced. After three weeks of treatment, medication was stopped and the patient was re-examined.

[6] = system: patient with corticobasal syndrome; assay: Case study, corticobasal syndrome; type: in vivo, human; conditions: treatment with L-Dopa
Procedure: Gait analysis was performed before treatment commenced.

[7] = system: person with balance disorder/senile gait disorder; assay: Case study Example 23; type: in vivo, human; conditions: treatment with L-Dopa
[8] = system: patients with multiple system atrophy Parkinson type (MSA-P); assay: Case studies, multiple system atrophy Parkinson type; type: in vivo, human; conditions: MSA-P Patient 1, 100/25 mg 3× daily
[9] = system: patients with multiple system atrophy Parkinson type (MSA-P); assay: as above; type: in vivo, human; conditions: MSA-P Patient 3
Source text: Medication was stopped. […] The patient evaluated after one month on acetyl-DL-leucine. […] Episodes of mental confusion completely disappeared. The patient's cognitive structure seemed much clearer and straighter. […] The patient's spouse supported continuing the medication.

[10] = system: patients with amyotrophic lateral sclerosis (ALS); assay: Case studies, amyotrophic lateral sclerosis; type: in vivo, human; conditions: ALS Patient 1
Source text: The results were documented by video.

[11] = system: rat model of an acute unilateral labyrinthectomy; conditions: acute unilateral labyrinthectomy (Gunther 2015); cited from earlier work

## CCCN(CCC)CCc1cccc2c1CC(=O)N2 [Ropinirol]
[1]
  Response to prior medication: little improvement

## Nc1ccncc1 [4-aminopyridine]
[2]
  Benefit of prior medication: did not give rise to any benefit
[2]; listed as Fampyra®
  Benefit of prior medication: did not benefit

## OCCOCCN1CCN(C2=Nc3ccccc3Sc3ccccc32)CC1 [Quetiapin]
[3]
  Response to prior medication: improved the symptomatology

## N[C@@H](Cc1ccc(O)c(O)c1)C(=O)O [L-Dopa]
[4]
  Response to prior medication: No improvement
[5]
  Levodopa response: little improvement
[5]; listed as levodopa
  Levodopa response: no levodopa response; also recorded: slight levodopa response
[6]
  Response to prior medication: no improvement
[7]
  Response to prior medication: no improvement
[8]
  Levodopa response: discreet Levodopa response
[1]
  Response to prior medication: little improvement
[3]
  Response to prior medication: improved the symptomatology
[9]
  Tolerability of Levodopa therapy: suspended due to side effects

## Nc1nc2ccc(OC(F)(F)F)cc2s1 [Riluzol]
[10]
  Clinical symptomatology under prior medication: remained unchanged

## CC(=O)N[C@@H](CC(C)C)C(=O)O [acetyl-L-leucine]
[11]
  postural compensation: significant effect
